# Entries after “also recorded” stand apart in the source; their conditions may differ.
# Tested on: PV immunoreactive interneurons (PVI) in the PFC of NVHL rats
# Experiment: PV interneuron counts (stereology) in PFC of NVHL rats
# Format: in vivo, Sprague-Dawley rats
# Settings: adult (P61) NVHL rats; drinking water 900 mg/l, P5 to P50
# Protocol: This example describes reversal of prepulse inhibition through treatment of ebselen. One of the most replicated findings in schizophrenia research is a reduction of markers associated with cortical inhibitory interneurons (Lewis et al., 2012). […] Whether parvalbumin (PV) positive interneurons in the PFC, including the dorsal prelimbic and anterior cingulate cortex (ACC), are altered in NVHL rats using unbiased stereological counting techniques was assessed. Between postnatal day (P) 21 and P61, the number of PV immunoreactive interneurons (PVI) increased in sham-operated rats, but not in NVHL rats as illustrated in FIGS. 7A and 1B.
# Animals: Timed-pregnant Sprague-Dawley rats were obtained at gestational days 13-15 from Charles River (Wilmington, MA) and were individually housed with free access to food and water in a temperature- and humidity-controlled environment with a 12:12h light/dark cycle (lights on at 7:00 AM). When pups reached P5, half of the dams received NAC in their drinking water. Pups were left undisturbed until P7-9 when healthy offspring were randomly separated and received either NVHL or sham surgery. At P21, male and female pups were either transcardially perfused with 4% paraformaldehyde for immunocytochemistry or weaned and housed in groups of two to three, counterbalanced across lesion status. NAC treatment lasted throughout adolescence until P50. […]
structure (smiles),measurement,value
"CC(=O)N[C@@H](CS)C(=O)O [NAC, N-acetyl cysteine]",effect on PVI count reduction in PFC,prevented; also recorded: rescued
